Key:
rice = test: Test C flood test plant response rating 0 to 100; assay type: in vivo, Oryza sativa; settings: for Plant response rating Rice Japonica: flood test species listed under POSTEMERGENCE, 0 to 100 scale
Outline: (§1)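 Compounds in non-phytotoxic solvent applied preemergence to sandy loam one day after planting, postemergence at the 1–4 leaf stage, or to ~2.5 cm floodwater over silt loam.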

morningglory = test: Test C preemergence/postemergence greenhouse plant response rating 0 to 100; assay type: in vivo, Ipomoea hederacea; settings: POSTEMERGENCE; for Plant response rating, Morningglory: 0 to 100 scale
Outline: as §1

blackgrass = test: Test B preemergence/postemergence greenhouse plant response rating 0 to 10; assay type: in vivo, Alopecurus myosuroides; settings: 0 to 10 scale
Outline: (§2)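 Both application timings were run together: seeds got compound preemergence, and established seedlings (two to eighteen cm) got it postemergence. Non-phytotoxic solvent carried the chemical. Ratings are visual, versus controls, at twelve to sixteen days.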

purple nutsedge = test: as above; assay type: in vivo, Cyperus rotundus; settings: 0 to 10 scale
Outline: as §2

rape = test: as above; assay type: in vivo, Brassica napus; settings: 0 to 10 scale
Outline: as §2

corn = test: Test C preemergence/postemergence greenhouse plant response rating 0 to 100; assay type: in vivo, Zea mays; settings: POSTEMERGENCE; for Plant response rating, Corn: 0 to 100 scale
Outline: as §1

giant foxtail = test: Test B preemergence/postemergence greenhouse plant response rating 0 to 10; assay type: in vivo, Setaria faberii; settings: 0 to 10 scale
Outline: as §2

wheat = test: Test C preemergence/postemergence greenhouse plant response rating 0 to 100; assay type: in vivo, Triticum aestivum; settings: POSTEMERGENCE; for Plant response rating, Wheat: 0 to 100 scale
Outline: as §1

wild buckwheat = test: as above; assay type: in vivo, Polygonum convolvulus; settings: POSTEMERGENCE; for Plant response rating, Wild buckwheat: 0 to 100 scale
Outline: as §1

crabgrass = test: Test B preemergence/postemergence greenhouse plant response rating 0 to 10; assay type: in vivo, Digitaria spp.; settings: 0 to 10 scale
Outline: as §2

barnyardgrass = test: as above; assay type: in vivo, Echinochloa crus-galli; settings: 0 to 10 scale
Outline: as §2

wild oat = test: Test C preemergence/postemergence greenhouse plant response rating 0 to 100; assay type: in vivo, Avena fatua; settings: POSTEMERGENCE; for Plant response rating, Wild oat: 0 to 100 scale
Outline: as §1

[1] = Rate 16 g/ha, under POSTEMERGENCE head (flood test species)

C#CC(C)Oc1cc(-c2nn3c(c2Cl)CCCC3)c(F)cc1Cl (stereo not drawn) [Compound 36] was tested, and the “Plant response rating (0 to 100), Rice Japonica” value (rice; [1]) was 20, the “Plant response rating (0 to 100), Rice Japonica” value (rice; Rate 31 g/ha, under POSTEMERGENCE head (flood test species)) was 35 and the “Plant response rating Rice Japonica” value (rice; 62 g/ha) was 40. For the same compound, the “Plant response rating Rice Japonica” value (rice; 125 g/ha) was 50, the “Plant response rating, Morningglory” value (morningglory; 62 g/ha) was 100 and the “Plant response rating, Morningglory” value (morningglory; 125 g/ha) was 100. The “Plant response rating (0 to 100), Morningglory” value (morningglory; Rate 16 g/ha) was 80, the “Plant response rating (0 to 100), Morningglory” value (morningglory; Rate 31 g/ha) was 80 and the “Plant response rating, Blackgrass” value (blackgrass; POSTEMERGENCE, Rate 50 g/ha) was 5. The “Plant response rating, Blackgrass” value (blackgrass; POSTEMERGENCE, Rate 200 g/ha) was 7, the “Plant response rating, Blackgrass” value (blackgrass; PREEMERGENCE, Rate 50 g/ha) was 4 and the “Plant response rating, Blackgrass” value (blackgrass; Rate 200 g/ha, PREEMERGENCE) was 10. The “Plant response rating, Nutsedge” value (purple nutsedge; POSTEMERGENCE, Rate 50 g/ha) was 4, the “Plant response rating, Nutsedge” value (purple nutsedge; PREEMERGENCE, Rate 50 g/ha) was 0 and the “Plant response rating, Nutsedge” value (purple nutsedge; Rate 200 g/ha, POSTEMERGENCE) was 5. For the same compound, the “Plant response rating, Nutsedge” value (purple nutsedge; Rate 200 g/ha, PREEMERGENCE) was 2, the “Plant response rating, Rape” value (rape; POSTEMERGENCE, Rate 50 g/ha) was 10 and the “Plant response rating, Rape” value (rape; PREEMERGENCE, Rate 50 g/ha) was 5. The “Plant response rating, Rape” value (rape; Rate 200 g/ha, POSTEMERGENCE) was 10, the “Plant response rating, Rape” value (rape; Rate 200 g/ha, PREEMERGENCE) was 8 and the “Plant response rating, Corn” value (corn; 62 g/ha) was 50. The “Plant response rating, Corn” value (corn; 125 g/ha) was 60, the “Plant response rating (0 to 100), Corn” value (corn; Rate 16 g/ha) was 30 and the “Plant response rating (0 to 100), Corn” value (corn; Rate 31 g/ha) was 40. The “Plant response rating, Giant foxtail” value (giant foxtail; POSTEMERGENCE, Rate 50 g/ha) was 6, the “Plant response rating, Giant foxtail” value (giant foxtail; PREEMERGENCE, Rate 50 g/ha) was 5 and the “Plant response rating, Giant foxtail” value (giant foxtail; Rate 200 g/ha, POSTEMERGENCE) was 7. The “Plant response rating, Giant foxtail” value (giant foxtail; Rate 200 g/ha, PREEMERGENCE) was 9, the “Plant response rating, Wheat” value (wheat; 62 g/ha) was 50 and the “Plant response rating, Wheat” value (wheat; 125 g/ha) was 50. The “Plant response rating (0 to 100), Wheat” value (wheat; Rate 16 g/ha) was 20, the “Plant response rating (0 to 100), Wheat” value (wheat; Rate 31 g/ha) was 30 and the “Plant response rating, Wild buckwheat” value (wild buckwheat; 62 g/ha) was 100. For the same compound, the “Plant response rating, Wild buckwheat” value (wild buckwheat; 125 g/ha) was 100, the “Plant response rating (0 to 100), Wild buckwheat” value (wild buckwheat; Rate 16 g/ha) was 70 and the “Plant response rating (0 to 100), Wild buckwheat” value (wild buckwheat; Rate 31 g/ha) was 70. For the same compound, the “Plant response rating, Crabgrass” value (crabgrass; POSTEMERGENCE, Rate 50 g/ha) was 5, the “Plant response rating, Crabgrass” value (crabgrass; POSTEMERGENCE, Rate 200 g/ha) was 7 and the “Plant response rating, Crabgrass” value (crabgrass; PREEMERGENCE, Rate 50 g/ha) was 5. For the same compound, the “Plant response rating, Crabgrass” value (crabgrass; Rate 200 g/ha, PREEMERGENCE) was 9, the “Plant response rating, Barnyardgrass” value (barnyardgrass; POSTEMERGENCE, Rate 50 g/ha) was 6 and the “Plant response rating, Barnyardgrass” value (barnyardgrass; POSTEMERGENCE, Rate 200 g/ha) was 9. For the same compound, the “Plant response rating, Barnyardgrass” value (barnyardgrass; PREEMERGENCE, Rate 50 g/ha) was 3, the “Plant response rating, Barnyardgrass” value (barnyardgrass; Rate 200 g/ha, PREEMERGENCE) was 5 and the “Plant response rating, Wild oat” value (wild oat; 62 g/ha) was 30. For the same compound, the “Plant response rating, Wild oat” value (wild oat; 125 g/ha) was 50, the “Plant response rating (0 to 100), Wild oat” value (wild oat; Rate 16 g/ha) was 10 and the “Plant response rating (0 to 100), Wild oat” value (wild oat; Rate 31 g/ha) was 20.

For COCN1C(=O)COc2cc(F)c(-c3nn4c(c3Br)CCCC4)cc21 [Compound 67], the “Plant response rating (0 to 100), Rice Japonica” value (rice; POSTEMERGENCE section, flood test, Rate 1 g/ha) was 0, the “Plant response rating (0 to 100), Rice Japonica” value (rice; POSTEMERGENCE section, flood test, Rate 4 g/ha) was 0 and the “Plant response rating (0 to 100), Rice Japonica” value (rice; [1]) was 50. The “Plant response rating Rice Japonica” value (rice; 62 g/ha) was 90, the “Plant response rating, Morningglory” value (morningglory; 62 g/ha) was 100 and the “Plant response rating (0 to 100), Morningglory” value (morningglory; Rate 1 g/ha) was 50. The “Plant response rating (0 to 100), Morningglory” value (morningglory; Rate 4 g/ha) was 70, the “Plant response rating (0 to 100), Morningglory” value (morningglory; Rate 16 g/ha) was 100 and the “Plant response rating, Blackgrass” value (blackgrass; POSTEMERGENCE, Rate 10 g/ha) was 4. The “Plant response rating, Blackgrass” value (blackgrass; POSTEMERGENCE, Rate 50 g/ha) was 5, the “Plant response rating, Blackgrass” value (blackgrass; PREEMERGENCE, Rate 10 g/ha) was 3 and the “Plant response rating, Blackgrass” value (blackgrass; PREEMERGENCE, Rate 50 g/ha) was 8. The “Plant response rating, Nutsedge” value (purple nutsedge; POSTEMERGENCE, Rate 10 g/ha) was 1, the “Plant response rating, Nutsedge” value (purple nutsedge; POSTEMERGENCE, Rate 50 g/ha) was 3 and the “Plant response rating, Nutsedge” value (purple nutsedge; PREEMERGENCE, Rate 50 g/ha) was 0. The “Plant response rating, Rape” value (rape; POSTEMERGENCE, Rate 10 g/ha) was 9, the “Plant response rating, Rape” value (rape; POSTEMERGENCE, Rate 50 g/ha) was 10 and the “Plant response rating, Rape” value (rape; PREEMERGENCE, Rate 50 g/ha) was 3. The “Plant response rating, Corn” value (corn; 62 g/ha) was 40, the “Plant response rating (0 to 100), Corn” value (corn; Rate 1 g/ha) was 10 and the “Plant response rating (0 to 100), Corn” value (corn; Rate 4 g/ha) was 20. For the same compound, the “Plant response rating (0 to 100), Corn” value (corn; Rate 16 g/ha) was 30, the “Plant response rating, Giant foxtail” value (giant foxtail; POSTEMERGENCE, Rate 10 g/ha) was 5 and the “Plant response rating, Giant foxtail” value (giant foxtail; POSTEMERGENCE, Rate 50 g/ha) was 6. For the same compound, the “Plant response rating, Giant foxtail” value (giant foxtail; PREEMERGENCE, Rate 10 g/ha) was 0, the “Plant response rating, Giant foxtail” value (giant foxtail; PREEMERGENCE, Rate 50 g/ha) was 2 and the “Plant response rating, Wheat” value (wheat; 62 g/ha) was 60. The “Plant response rating (0 to 100), Wheat” value (wheat; Rate 1 g/ha) was 10, the “Plant response rating (0 to 100), Wheat” value (wheat; Rate 4 g/ha) was 30 and the “Plant response rating (0 to 100), Wheat” value (wheat; Rate 16 g/ha) was 50. For the same compound, the “Plant response rating, Wild buckwheat” value (wild buckwheat; 62 g/ha) was 100, the “Plant response rating (0 to 100), Wild buckwheat” value (wild buckwheat; Rate 4 g/ha) was 70 and the “Plant response rating (0 to 100), Wild buckwheat” value (wild buckwheat; Rate 16 g/ha) was 100. For the same compound, the “Plant response rating, Crabgrass” value (crabgrass; POSTEMERGENCE, Rate 10 g/ha) was 5, the “Plant response rating, Crabgrass” value (crabgrass; POSTEMERGENCE, Rate 50 g/ha) was 6 and the “Plant response rating, Crabgrass” value (crabgrass; PREEMERGENCE, Rate 10 g/ha) was 0. The “Plant response rating, Crabgrass” value (crabgrass; PREEMERGENCE, Rate 50 g/ha) was 2, the “Plant response rating, Barnyardgrass” value (barnyardgrass; POSTEMERGENCE, Rate 10 g/ha) was 5 and the “Plant response rating, Barnyardgrass” value (barnyardgrass; POSTEMERGENCE, Rate 50 g/ha) was 6. The “Plant response rating, Barnyardgrass” value (barnyardgrass; PREEMERGENCE, Rate 10 g/ha) was 2, the “Plant response rating, Barnyardgrass” value (barnyardgrass; PREEMERGENCE, Rate 50 g/ha) was 6 and the “Plant response rating, Wild oat” value (wild oat; 62 g/ha) was 60. For the same compound, the “Plant response rating (0 to 100), Wild oat” value (wild oat; Rate 1 g/ha) was 10, the “Plant response rating (0 to 100), Wild oat” value (wild oat; Rate 4 g/ha) was 30 and the “Plant response rating (0 to 100), Wild oat” value (wild oat; Rate 16 g/ha) was 50.
